14 molecules from patent US7482358B2, “Imidazoline compounds” (Banyu Pharmaceutical Co., Ltd., priority 2000, dated 2009) can be followed below.

The term IC50 denotes the concentration needed to halve the response being measured. In general, melting point refers to the temperature, or range, at which the solid turns liquid. As usually defined, the half-life is the time needed for the level to fall by half in the phase considered.

One data set addresses T1, human NPY Y5 receptor (Homo sapiens, UniProt Q15761).
T1 construct: expressed in transfected cells; host or cells: COS-7, CHO and LM(tk-)
T1 sequence (Q15761 1-445): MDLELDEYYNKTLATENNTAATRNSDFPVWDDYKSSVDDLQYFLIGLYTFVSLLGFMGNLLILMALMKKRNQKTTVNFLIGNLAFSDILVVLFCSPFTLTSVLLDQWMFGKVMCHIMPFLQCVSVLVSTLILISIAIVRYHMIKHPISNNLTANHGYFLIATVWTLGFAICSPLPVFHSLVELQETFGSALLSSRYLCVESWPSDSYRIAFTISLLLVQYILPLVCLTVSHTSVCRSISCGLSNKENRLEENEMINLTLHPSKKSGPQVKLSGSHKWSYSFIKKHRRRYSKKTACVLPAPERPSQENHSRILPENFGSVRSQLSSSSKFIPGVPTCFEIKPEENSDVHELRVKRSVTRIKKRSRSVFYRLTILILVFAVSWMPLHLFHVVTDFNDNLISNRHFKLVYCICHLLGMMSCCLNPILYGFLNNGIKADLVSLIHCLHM
The data set can be described thus: NPY binding inhibition test ([125I] peptide YY binding to membranes of cells expressing NPY Y5 receptor). The note with it: against specific [125I] peptide YY binding, 25° C., 2 hours; read-out: IC50, inhibitory activities on NPY receptor binding.

Data set [1] in a line: Test for pharmacokinetics. It is filed as in vivo. To be noted: male SD rats, overnight fasting, oral or intravenous. Here is the method:
Pharmacological Test 3 (Test for Pharmacokinetics)
The tested compound was administered orally or intravenously to male SD rats (7-10 weeks old, 200-400 g) under overnight fasting condition, and about 100 μL of blood was taken from tail vein using a heparinized capillary at predefined time points. The blood samples were separated by centrifuge (4° C., 6,000 rpm, for 10 minutes) to obtain plasma. To the plasma, 3-fold volume of ethanol containing the internal standard substances was added and the mixture was stirred, then left at −20° C. for 20 minutes, followed by centrifugation (4° C., 10,000 rpm for 10 minutes). The supernatant was analyzed by LC/MS/MS and then the concentration of the test compound in plasma was measured by the relative calibration curve method.

A short description of data set [2]: Brain and cerebrospinal fluid penetration test. It is filed as in vivo, male SD rats. The note with it: 2 hours after oral administration (10 mg/kg), rat; for concentration at 2 h: male, Sprague-Dawley. Here is the method:
Pharmacological Test 4 (Brain and Cerebrospinal Fluid Penetration Test)
The tested compound was administered orally or intravenously to male SD rats (7-10 weeks old, 200-400 g). The rats anesthetized with ether, and the all blood were taken at predefined time points with a heparinized syringe from the abdominal aorta. Further, the rats were cut the skin of occipital region of head and inserted a 30 G dental needle between cervical vertebrae, into subarachnoid cavity. And then, 50-100 μL of cerebrospinal fluid was collected in a 1 mL syringe through a tube connected with the 30G dental needle, followed by taking out the brain. To the plasma obtained from the centrifuged blood sample (4° C., 6,000 rpm, for 10 minutes), 3-fold volume of ethanol including the internal standard substances was added and the mixture was stirred. To the brain sample, 2 mL of water was added and the mixture was homogenized. To an aliquot of the homogenized mixture, 3-fold volume of ethanol including the internal standard substances was added, followed by stirring. To the cerebrospinal fluid, 3-fold volume of ethanol containing the internal standard substances was added, followed by stirring. The above samples were left at −20° C. for 20 minutes and separated by centrifuge (4° C., 12,000 g, for 10 minutes). The supernatant was analyzed by LC/MS/MS and then each concentration in plasma, brain and cerebrospinal fluid was measured by the relative calibration curve method.

Molecules are shown by their SMILES. Like-named read-outs stand apart in the source and are kept apart here.

Experimental for human NPY Y5 receptor: These obtained expression vectors were transfected to host cells COS-7, CHO and LM(tk-)(American Type Culture Collection) by cationic lipid method (Confer Proceedings of the National Academy of Sciences of the United States of America, vol. 84:7413(1987)) to give recombinant cells which express NPY Y5 receptor.
A membrane sample prepared from the cells which expressed NPY Y5 receptor was incubated together with a test compound and (^125I) peptide YY (made by NEN) (20,00 cpm) in an assay buffer (25 mM Tris buffer, pH7.4, containing 10 mM magnesium chloride, 1 mM phenylmethylsulfonyl fluoride, 0.1% bacitracin and 0.5% bovine serum albumin) at 25° C. for 2 hours, then filtered through a glass filter GF/C and washed with 5 mM Tris buffer (pH7.4) containing 0.3% BSA. The radioactivity on the glass filter was measured. Nonspecific binding was measured in the presence of 1 μM peptide YY and a 50% Inhibitory Concentration (IC50) of the test compound against specific peptide YY binding was determined (Confer Endocrinology, vol. 131: 2090(1992)).

With `N#Cc1cccc(C2=NC(c3cccc(F)c3)(c3cccc(F)c3)CN2)c1` [Example 5-1, 2-(3-cyanophenyl)-4,4-bis(3-fluorophenyl)-2-imidazoline], the IC50 on human NPY Y5 receptor stood at 2.3 nM. For `Cc1ccc(C2(c3ccccc3)CNC(c3cccc(C#N)c3)=N2)cc1` (stereo not shown) [Example 5-11, 2-(3-cyanophenyl)-4-(4-methylphenyl)-4-phenyl-2-imidazoline], the melting point fell in the range of 179 to 180 °C.

`O=[N+]([O-])c1cccc(C2=NC(c3ccc(F)cc3)(c3ccc(F)cc3)CN2)c1` [Example 5-13, 4,4-bis(4-fluorophenyl)-2-(3-nitrophenyl)-2-imidazoline]: the melting point lay in the range of 156 to 158 °C. The molecule `CN(C)c1ccc(C2(c3ccccc3)CNC(c3cccc(C#N)c3)=N2)cc1` (stereo not shown) [Example 5-27, 2-(3-cyanophenyl)-4-(4-dimethylaminophenyl)-4-phenyl-2-imidazoline] returned a melting point of 210 to 213 °C. Same read-out and setting: the figure for `c1ccc(C2(c3ccccc3)CNC(c3cnccn3)=N2)cc1` [Example 5-31, 4,4-diphenyl-2-pyrazinyl-2-imidazoline] is 183 to 184 °C; for `CS(=O)(=O)c1cccc(C2=NC(c3ccc(F)cc3)(c3ccc(F)cc3)CN2)c1` [Example 5-34, 4,4-bis(4-fluorophenyl)-2-(3-methylsulfonylphenyl)-2-imidazoline] it is 209 to 212 °C; for `N#Cc1cccc(C2=NC(c3ccccc3)(C3CCCCC3)CN2)c1` (stereo not shown) [Example 5-42, 2-(3-cyanophenyl)-4-cyclohexyl-4-phenyl-2-imidazoline] it is 151 to 152 °C. Same read-out and setting: the figure for `N#Cc1cccc(C2=NC(c3ccccc3)(C3CCC3)CN2)c1` (stereo not shown) [Example 5-46, 2-(3-cyanophenyl)-4-cyclobutyl-4-phenyl-2-imidazoline] is 117 to 118 °C. `CC1NC(c2cnccn2)=NC1(c1ccc(F)cc1)c1ccc(F)cc1` (stereo not shown) [Example 7, 4,4-bis(4-fluorophenyl)-5-methyl-2-pyrazinyl-2-imidazoline]: the IC50 on human NPY Y5 receptor came out at 3.4 nM. Moreover, the half-life in data set [1] (Sprague-Dawley, rat, plasma, read-out: half-life in blood (converted)) is 5.1 h. In data set [1], the biological availability ratio is 35%. The molecule also yielded a cerebral concentration in data set [2] of 2.95 nM/g. Further, the concentration at 2 h in data set [2] (cerebrospinal fluid, read-out: cerebrospinal concentration) was 32 nM; in data set [2] (plasma, read-out: plasma concentration), 730 nM. Turning to `Fc1ccc(C2(c3ccc(F)cc3)CNC(c3cccc(OC(F)(F)F)c3)=N2)cc1` [Example 9-4, 4,4-bis(4-fluorophenyl)-2-(3-trifluoromethoxyphenyl)-2-imidazoline], the melting point lay within 114 to 117 °C. `Cc1cccc(C2=NC(c3ccc(F)cc3)(c3ccc(F)cc3)CN2)c1` [Example 9-6, 4,4-bis(4-fluorophenyl)-2-(3-methylphenyl)-2-imidazoline] registered a melting point of 148 to 149 °C. On the same count and under the same terms, for `Fc1ccc(C2(c3ccc(F)cc3)CNC(c3cccs3)=N2)cc1` [Example 9-7, 4,4-bis(4-fluorophenyl)-2-(2-thienyl)-2-imidazoline] the value was 156 to 160 °C. `Fc1ccc(C2(c3ccc(F)cc3)CNC(c3ccsc3)=N2)cc1` [Example 9-10, 4,4-bis(4-fluorophenyl)-2-(3-thienyl)-2-imidazoline] displayed a melting point of 160 to 163 °C. `N#Cc1ccnc(C2=NC(c3ccc(F)cc3)(c3ccnc(F)c3)CN2)c1` (stereo not shown) [Example 14-2, 2-(4-cyano-2-pyridyl)-4-(4-fluorophenyl)-4-(2-fluoro-4-pyridyl)-2-imidazoline]: the melting point lay in the range of 169 to 171 °C.
